Experimental data published in paper PMC3905653, “Characterization of two transketolases encoded on the chromosome and the plasmid pBM19 of the facultative ribulose monophosphate cycle methylotroph Bacillus methanolicus” (BMC Microbiology, 2014).

What was measured:
TKT^C = target: T1, TKT^C (Bacillus methanolicus, UniProt I3DZN5); assay: inhibition in coupled assay I; type: biochemical; settings: effector tested at 1 and 5 mM, which one gave the value is not told; R5-P and X5-P, pH 7.5, Mn2+
T1 construct: gene tktC; full length, chromosomal gene; pET16b N-terminal His10 tag cut by factor Xa; E. coli BL21(DE3); 73 kDa, homotetramer 280 kDa; primers tktC encode start TTG-TTT-GAT-AAA-ATT-GAC-CAT (MFDKIDH) and C-terminal ALLKQ
T1 sequence (I3DZN5 entry or part of it): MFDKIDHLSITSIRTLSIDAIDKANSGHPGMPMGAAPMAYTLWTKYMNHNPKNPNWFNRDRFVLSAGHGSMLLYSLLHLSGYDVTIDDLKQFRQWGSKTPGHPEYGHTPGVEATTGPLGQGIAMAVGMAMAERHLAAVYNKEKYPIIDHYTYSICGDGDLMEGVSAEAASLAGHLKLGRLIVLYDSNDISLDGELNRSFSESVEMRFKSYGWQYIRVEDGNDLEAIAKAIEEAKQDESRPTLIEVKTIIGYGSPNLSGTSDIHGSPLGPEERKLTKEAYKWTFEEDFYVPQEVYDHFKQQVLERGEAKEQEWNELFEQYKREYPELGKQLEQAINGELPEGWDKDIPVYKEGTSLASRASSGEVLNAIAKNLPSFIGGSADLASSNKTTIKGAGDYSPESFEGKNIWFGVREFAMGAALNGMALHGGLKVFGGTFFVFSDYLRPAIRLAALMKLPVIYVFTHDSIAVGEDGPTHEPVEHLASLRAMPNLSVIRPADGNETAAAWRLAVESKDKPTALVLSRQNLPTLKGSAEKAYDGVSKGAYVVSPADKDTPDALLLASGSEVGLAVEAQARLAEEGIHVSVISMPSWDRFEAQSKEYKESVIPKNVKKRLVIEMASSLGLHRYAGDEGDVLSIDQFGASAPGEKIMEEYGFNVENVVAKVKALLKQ

TKT^P = target: T2, TKT^P (Bacillus methanolicus, UniProt Q6TV44); assay: inhibition in coupled assay I; type: biochemical; settings: effector tested at 1 and 5 mM, which one gave the value is not told; R5-P and X5-P, pH 7.5, Mn2+
T2 construct: gene tktP; full length, plasmid pBM19 gene; pET16b N-terminal His10 tag cut by factor Xa; E. coli BL21(DE3); 73 kDa, homotetramer 280 kDa
T2 sequence (Q6TV44 entry or part of it): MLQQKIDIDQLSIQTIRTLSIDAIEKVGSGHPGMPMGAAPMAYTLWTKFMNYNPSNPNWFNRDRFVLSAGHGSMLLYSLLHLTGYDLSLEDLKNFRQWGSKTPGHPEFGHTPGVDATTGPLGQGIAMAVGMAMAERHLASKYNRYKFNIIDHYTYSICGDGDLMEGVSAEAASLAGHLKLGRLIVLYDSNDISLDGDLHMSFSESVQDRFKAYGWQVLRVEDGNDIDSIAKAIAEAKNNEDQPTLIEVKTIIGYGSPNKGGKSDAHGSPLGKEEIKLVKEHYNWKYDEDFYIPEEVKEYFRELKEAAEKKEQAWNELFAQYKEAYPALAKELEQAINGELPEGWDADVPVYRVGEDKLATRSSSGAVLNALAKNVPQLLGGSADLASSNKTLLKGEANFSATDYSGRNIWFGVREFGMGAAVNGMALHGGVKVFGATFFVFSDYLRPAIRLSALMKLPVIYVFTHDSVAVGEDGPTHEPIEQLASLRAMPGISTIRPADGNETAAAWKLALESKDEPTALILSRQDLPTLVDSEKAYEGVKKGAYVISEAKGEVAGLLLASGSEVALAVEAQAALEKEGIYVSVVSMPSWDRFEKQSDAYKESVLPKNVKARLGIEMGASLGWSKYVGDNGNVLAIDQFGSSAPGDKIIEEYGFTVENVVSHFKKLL

| % inhibition (TKT^C) | % inhibition (TKT^P) | Structure (SMILES) |
| --- | --- | --- |
| 95% | 65% | Nc1ncnc2c1ncn2[C@@H]1O[C@H](COP(=O)(O)OP(=O)(O)O)[C@@H](O)[C@H]1O [ADP] |
| 75% | 65% | Nc1ncnc2c1ncn2[C@@H]1O[C@H](COP(=O)(O)OP(=O)(O)OP(=O)(O)O)[C@@H](O)[C@H]1O [ATP] |
